Peptide text beside a SMILES is read from it.
Legend:
α2 TM domain = biological target: T1, α2 TM domain (Homo sapiens, UniProt P17301); test: DN-TOXCAT heterodimerization; format: cell-based; conditions: coexpressed in bacterial membranes
T1 construct: expressed in transfected cells; host or cells: E. coli MM39, pDNToxR-Duet
Description: (§1) Both the affinity and specificity of the membrane protein-binding peptides for their targets when coexpressed in bacterial membranes were assessed with a DN-“TOXCAT” assay (FIGS. 3a-3c). In TOXCAT, a TM sequence of interest is fused to a ToxR protein (TM-ToxR) that binds to the ctx promoter as a dimer, which induces expression of chloramphenicol acetyltransferase (CAT) (W. P. Russ, D. M. Engelman, Proc. Natl. Acad. Sci. U.S.A. 96, 863 (1999); D. Langosch, B. Brosig, H. Kolmar, H. J. Fritz, J. Mol. Biol. 263, 525 (1996)). In the DN assay, the TM1-ToxR fusion protein is coexpressed with a second fusion protein (TM2-ToxR*) containing a nonfunctional mutant of the ToxR domain. TM-driven dimerization leads to a ToxR-ToxR* dimer that is unable to bind the ctx promoter or to induce CAT synthesis (FIG. 3a). The resulting decrease in CAT activity can be used to monitor the formation of a heterodimeric TM complex. In principle, this assay could be accomplished by adding an exogenous synthetic peptide (D. Gerber, N. Sal-Man, Y. Shai, J. Mol. Biol. 339, 243 (2004)); however, it is difficult to assure that different peptides will be similarly inserted into the Escherichia coli inner membrane.
(§2) For testing the specificity of the designed membrane protein-binding polypeptide sequences against the integrin TM domains, the designed sequences (anti-αIIb and anti-αV) were cloned into MCS1 of the Duet vector and the integrin TM domains into MCS2 of the Duet vector. In this configuration, the integrin TMs compete for the homodimers formed by the polypeptide sequences, with the decrease in CAT signal proportional to the extent of heterodimerization between a given integrin TM and polypeptide sequence relative to the homodimerization of the polypeptide sequence.
(§3) Single MM39 colonies containing pDNToxR-Duet constructs from selective plates were chosen, inoculated in 5 mL of LB medium containing 100 μg/mL ampicillin and grown to an OD600 of 0.2 at 37° C. with vigorous shaking. IPTG was added to the medium at a final concentration of 0.1 mM IPTG and grown to an OD600 of 0.7. Purification, immunoblotting, CAT ELISA and MalE complementation assays are essentially as described previously. Li, R., Gorelik, R., Nanda, V., Law, P. B., Lear, J. D., DeGrado, W. F. and Bennett, J. S. J. Biol. Chem. 2004, 279, 26666-26673 (2004). For immunoblotting, anti-MBP (NEB) was used for pccKAN (TOXCAT) constructs, whereas anti-myc (Covance) and anti-HA (Covance) were used for pDNToxR-Duet constructs. CAT ELISA results are an average of 3 independent replicates.

β3 TM domain = biological target: T2, β3 TM domain (Homo sapiens, UniProt P05106); test: DN-TOXCAT heterodimerization; format: cell-based; conditions: coexpressed in bacterial membranes
T2 construct: expressed in transfected cells; host or cells: E. coli MM39, pDNToxR-Duet
Description: as §1, §2, §3

β1 TM domain = biological target: T3, β1 TM domain (Homo sapiens, UniProt P05556); test: DN-TOXCAT heterodimerization; format: cell-based; conditions: coexpressed in bacterial membranes
T3 construct: expressed in transfected cells; host or cells: E. coli MM39, pDNToxR-Duet
Description: as §1, §2, §3

[1] = biological target: T4, CHO cells expressing αIIbβ3 (Homo sapiens, UniProt P08514); test: Force spectroscopy (laser tweezers), CHO cells and fibrinogen-coated beads; format: cell-based, Chinese hamster; conditions: 0.5 μM polypeptide
T4 construct: expressed in transfected cells; host or cells: CHO cells
Description: Litvinov R I et al. Proc. Natl. Acad. Sci. USA. 99, 7426-31 (2002). Recombinant human OPN, prepared as previously described (Bennett J S et al. J. Biol. Chem. 272, 8137-40 (1997)) or purified human fibrinogen was covalently bound to 0.93 μm carboxylate-modified latex beads. Individual cells, trapped from a suspension of gel filtered human platelets or CHO cells, were manually attached to 5 μm diameter silica pedestals coated with polylysine. An OPN- or fibrinogen-coated bead, trapped by the laser light, was then brought into proximity of an immobilized cell, oscillated at 50 Hz, and then brought into repeated intermittent contact with the cell by micromanipulation. Data collection was initiated at the first contact between the bead and the cell. Rupture forces following repeated contacts were collected for periods of several seconds to one minute. Individual forces measured during each contact-detachment cycle were collected into 10 pN-wide bins. The number of events in each bin was then plotted against the average force for that bin after normalizing for the total number of interaction cycles. Thus, the percentage of events in a particular force range (bin) represents the probability of rupture events at that tension. […] Therefore, rupture forces in this range were not considered when the data were analyzed. […]

αIIb TM domain = biological target: T5, αIIb TM domain (Homo sapiens, UniProt P08514); test: DN-TOXCAT heterodimerization; format: cell-based; conditions: coexpressed in bacterial membranes
T5 construct: expressed in transfected cells; host or cells: E. coli MM39, pDNToxR-Duet
Description: Both the affinity and specificity of the membrane protein-binding peptides for their targets when coexpressed in bacterial membranes were assessed with a DN-“TOXCAT” assay (FIGS. 3a-3c). In TOXCAT, a TM sequence of interest is fused to a ToxR protein (TM-ToxR) that binds to the ctx promoter as a dimer, which induces expression of chloramphenicol acetyltransferase (CAT) (W. P. Russ, D. M. Engelman, Proc. Natl. Acad. Sci. U.S.A. 96, 863 (1999); D. Langosch, B. Brosig, H. Kolmar, H. J. Fritz, J. Mol. Biol. 263, 525 (1996)). In the DN assay, the TM1-ToxR fusion protein is coexpressed with a second fusion protein (TM2-ToxR*) containing a nonfunctional mutant of the ToxR domain. TM-driven dimerization leads to a ToxR-ToxR* dimer that is unable to bind the ctx promoter or to induce CAT synthesis (FIG. 3a). The resulting decrease in CAT activity can be used to monitor the formation of a heterodimeric TM complex. […]
Mutants were generated using the QuikChange site-directed mutagenesis kit (Stratagene). […] In order to quantify the effects of mutations to anti-αIIb on the change in heterodimerization relative to wild-type anti-αIIb, a disruption index (or % disruption of heterodimerization) was calculated from the data as follows: […]

T4 sequence (P08514 891-1039 limits assumed): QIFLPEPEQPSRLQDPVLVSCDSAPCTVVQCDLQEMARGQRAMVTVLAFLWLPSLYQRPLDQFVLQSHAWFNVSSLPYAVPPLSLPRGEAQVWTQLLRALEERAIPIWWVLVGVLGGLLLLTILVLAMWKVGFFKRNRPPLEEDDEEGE
T4 sequence (P08514 32-887 partner limits assumed): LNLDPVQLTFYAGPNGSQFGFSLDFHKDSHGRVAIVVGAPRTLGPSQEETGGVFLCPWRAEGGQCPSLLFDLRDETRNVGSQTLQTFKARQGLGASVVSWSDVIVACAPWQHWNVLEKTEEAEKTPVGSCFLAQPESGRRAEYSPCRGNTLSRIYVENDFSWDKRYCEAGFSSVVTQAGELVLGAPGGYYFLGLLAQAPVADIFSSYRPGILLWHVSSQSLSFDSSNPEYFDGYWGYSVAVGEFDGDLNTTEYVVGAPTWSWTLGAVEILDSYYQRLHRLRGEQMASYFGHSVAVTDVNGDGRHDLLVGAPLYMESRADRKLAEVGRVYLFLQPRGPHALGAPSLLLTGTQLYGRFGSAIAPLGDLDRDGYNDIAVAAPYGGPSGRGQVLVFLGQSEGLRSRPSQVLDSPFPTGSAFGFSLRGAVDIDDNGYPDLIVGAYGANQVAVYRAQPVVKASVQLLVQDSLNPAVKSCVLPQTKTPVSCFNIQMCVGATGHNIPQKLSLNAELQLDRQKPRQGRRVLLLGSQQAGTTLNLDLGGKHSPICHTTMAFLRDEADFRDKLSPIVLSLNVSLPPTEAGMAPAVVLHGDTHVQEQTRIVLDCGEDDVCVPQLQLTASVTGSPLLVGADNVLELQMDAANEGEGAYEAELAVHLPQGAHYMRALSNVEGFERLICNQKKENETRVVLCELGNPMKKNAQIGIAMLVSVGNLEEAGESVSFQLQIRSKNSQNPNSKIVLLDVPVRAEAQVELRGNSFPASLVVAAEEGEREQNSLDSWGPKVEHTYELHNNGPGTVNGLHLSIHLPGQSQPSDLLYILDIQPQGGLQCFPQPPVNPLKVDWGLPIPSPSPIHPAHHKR
T4 sequence (P05106 27-788 partner): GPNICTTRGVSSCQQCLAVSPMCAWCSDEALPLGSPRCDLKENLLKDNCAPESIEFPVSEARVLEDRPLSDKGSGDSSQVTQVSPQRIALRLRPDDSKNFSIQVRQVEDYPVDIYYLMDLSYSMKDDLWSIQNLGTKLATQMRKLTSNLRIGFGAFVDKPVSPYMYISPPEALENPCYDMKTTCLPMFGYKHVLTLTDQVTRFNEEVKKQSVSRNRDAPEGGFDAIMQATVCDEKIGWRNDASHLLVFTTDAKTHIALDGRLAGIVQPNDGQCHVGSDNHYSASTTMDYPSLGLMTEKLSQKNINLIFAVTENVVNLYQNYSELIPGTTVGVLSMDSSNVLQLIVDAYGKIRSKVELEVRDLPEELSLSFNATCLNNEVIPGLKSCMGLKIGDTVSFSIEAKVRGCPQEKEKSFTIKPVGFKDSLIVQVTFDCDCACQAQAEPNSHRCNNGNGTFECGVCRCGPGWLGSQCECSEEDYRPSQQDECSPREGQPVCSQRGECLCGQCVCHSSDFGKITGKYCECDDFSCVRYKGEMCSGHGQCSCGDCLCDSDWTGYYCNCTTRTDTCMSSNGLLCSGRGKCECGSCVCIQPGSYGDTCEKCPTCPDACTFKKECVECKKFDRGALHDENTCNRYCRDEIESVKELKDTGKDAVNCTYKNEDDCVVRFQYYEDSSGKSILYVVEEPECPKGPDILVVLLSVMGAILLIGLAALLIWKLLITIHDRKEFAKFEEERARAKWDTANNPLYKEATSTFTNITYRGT
T2 sequence (P05106 with tags, fused parts or gaps limits assumed): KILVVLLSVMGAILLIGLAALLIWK
T1 sequence (P17301 with tags, fused parts or gaps limits assumed): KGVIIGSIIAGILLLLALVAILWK
T5 sequence (P08514 with tags, fused parts or gaps limits assumed): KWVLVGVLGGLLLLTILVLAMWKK
T3 sequence (P05556 with tags, fused parts or gaps limits assumed): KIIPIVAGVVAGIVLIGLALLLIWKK

## CC[C@H](C)[C@H](NC(=O)[C@H](Cc1ccccc1)NC(=O)[C@H](Cc1ccccc1)NC(=O)[C@@H]1CCCN1C(=O)[C@H](CC(C)C)NC(=O)[C@H](CC(C)C)NC(=O)[C@H](CCSC)NC(=O)[C@@H](NC(=O)[C@H](Cc1ccc(O)cc1)NC(=O)[C@H](C)NC(=O)[C@H](CCCCN)NC(=O)[C@@H](N)CCCCN)C(C)C)C(=O)NCC(=O)N[C@@H](CC(C)C)C(=O)N[C@@H](CC(C)C)C(=O)N[C@@H](CC(C)C)C(=O)NCC(=O)N[C@@H](CC(C)C)C(=O)N[C@H](C(=O)N[C@@H](Cc1ccccc1)C(=O)NCC(=O)NCC(=O)N[C@@H](C)C(=O)N[C@@H](Cc1ccccc1)C(=O)N[C@@H](Cc1c[nH]c2ccccc12)C(=O)NCC(=O)N1CCC[C@H]1C(=O)N[C@@H](C)C(=O)N[C@@H](CCCNC(=N)N)C(=O)N[C@@H](Cc1c[nH]cn1)C(=O)N[C@@H](CC(C)C)C(=O)N[C@@H](CCCCN)C(=O)N[C@@H](CCCCN)C(N)=O)[C@@H](C)CC [anti-αIIb] (H-KKAYVMLLPFFIGLLLGLIFGGAFWGPARHLKK-NH2; N-terminus assumed)
α2 TM domain
  interaction with α2 TM domain: failed to significantly interact
β3 TM domain
  interaction with β3 TM domain: failed to significantly interact
β1 TM domain
  interaction with β1 TM domain: failed to significantly interact
[1]
  rupture force between CHO cells expressing αIIbβ3 and fibrinogen-coated beads: peak of rupture force identical to that seen when platelets were incubated with ADP
[1]; abciximab 200 μg/ml
  rupture force peak after pre-incubation of CHO cells with abciximab: not present
αIIb TM domain
  CAT signal of anti-αIIb-ToxR with αIIb as the DN partner: strongly attenuated

From patent US8349791B2, “Polypeptides that bind membrane proteins” (The Trustees of the University of Pennsylvania, priority 2006, dated 2013)
